Measurements reported in US20230203081A1, “LINCOSAMIDE ANTIBIOTICS AND USES THEREOF” (President and Fellows of Harvard College, priority 2020, published 2023).
Converted amounts (≈) assume the structure as drawn.

Experiments:
Assay type in all cases: cell-based
S. aureus cErmA = experiment: MIC (broth microdilution or agar dilution, CLSI); details: Staphylococcus aureus; S. aureus cErmA; read-out: MIC
Description: (§1) Minimum inhibitory concentrations (MICs) were determined by broth microdilution method or agar dilution method following the Clinical and Laboratory Standards Institute guidelines. Standard bacterial strains were obtained from American Type Culture Collection (ATCC). Other bacterial strains were obtained from hospitals and commercial sources, so noted in Table 11. Before the start of the MIC experiment, standard and test compound stock solutions were prepared in dimethyl sulfoxide (DMSO, Aldrich D2650) at a stock concentration of 5,120 μg/mL. The compound concentration range typically employed for each experiment was 128-0.06 μg/mL (2.5% final DMSO concentration). Clindamycin was used as a comparator in all experiments and each experiment was performed in triplicate. Specialized procedures were employed for streptococcal and anaerobic strains. All other bacterial strains were sub-cultured on blood agar plates (tryptic soy agar with 5% sheep blood, Hardy Diagnostics) and incubated overnight at 35° C. Organisms were suspended in cation-adjusted Mueller-Hinton broth (CaMHB, BD 212322) and optical density was adjusted to 0.5 McFarland standard. Suspensions were further diluted to obtain a final inoculum of 5×10^5 CFU/mL for broth microdilution experiments.

E. faecium Clinical VRE = experiment: MIC (broth microdilution or agar dilution, CLSI); details: Enterococcus faecium; E. faecium Clinical VRE; read-out: MIC
Description: as §1

E. coli LptD = experiment: MIC (broth microdilution or agar dilution, CLSI); details: Escherichia coli, E. coli LptD; read-out: MIC
Description: (§2) Minimum inhibitory concentrations (MICs) were determined by broth microdilution method or agar dilution method following the Clinical and Laboratory Standards Institute guidelines. Standard bacterial strains were obtained from American Type Culture Collection (ATCC). Other bacterial strains were obtained from hospitals and commercial sources, so noted in Table 11. […] Specialized procedures were employed for streptococcal and anaerobic strains. All other bacterial strains were sub-cultured on blood agar plates (tryptic soy agar with 5% sheep blood, Hardy Diagnostics) and incubated overnight at 35° C. […] Suspensions were further diluted to obtain a final inoculum of 5×10^5 CFU/mL for broth microdilution experiments.

E. faecalis ATCC 29212 = experiment: MIC (broth microdilution or agar dilution, CLSI); details: Enterococcus faecalis, ATCC29212, E. faecalis ATCC 29212; read-out: MIC
Description: as §2

K. oxytoca Clinical = experiment: MIC (broth microdilution or agar dilution, CLSI); details: Klebsiella oxytoca; K. oxytoca Clinical; read-out: MIC
Description: as §2

S. pneumoniae ATCC 49619 = experiment: MIC (broth microdilution or agar dilution, CLSI); details: Streptococcus pneumoniae, ATCC49619, S. pneumoniae ATCC 49619; read-out: MIC
Description: as §2

S. aureus ATCC 29213 = experiment: MIC (broth microdilution or agar dilution, CLSI); details: Staphylococcus aureus, ATCC29213, S. aureus ATCC 29213; read-out: MIC
Description: as §2

E. coli ATCC 25922 = experiment: MIC (broth microdilution or agar dilution, CLSI); details: Escherichia coli, ATCC25922; E. coli ATCC 25922; read-out: MIC
Description: as §2

S. pyogenes ATCC 19615 = experiment: MIC (broth microdilution or agar dilution, CLSI); details: Streptococcus pyogenes, ATCC19615, S. pyogenes ATCC 19615; read-out: MIC
Description: as §2

E. coli ΔTolC = experiment: microbe, parasite or virus in culture; details: Escherichia coli, E. coli ΔTolC
Description: as §2

[1] = system: broad panel of different clinical isolates; experiment: microbe, parasite or virus in culture; details: Staphylococcus aureus, norA
Description: as §2

| Compound | MIC (S. aureus cErmA) | MIC (E. faecium Clinical VRE) | MIC (E. coli LptD) | MIC (E. faecalis ATCC 29212) | MIC (K. oxytoca Clinical) | MIC (S. pneumoniae ATCC 49619) | MIC (S. aureus ATCC 29213) | MIC (E. coli ATCC 25922) | MIC (S. pyogenes ATCC 19615) | MIC (E. coli ΔTolC) | MIC ([1]; S. aureus HAV#051, mecA, spcl, ermA, aad1, aac6′-aph2″) | MIC ([1]; S. aureus HAV#052, mecA, fosB, blaZ) | MIC ([1]; S. aureus HAV#053 mecA, fosB) | MIC ([1]; S. aureus HAV#054, mecA, spcl, aad1, fosB, ermA, aac6′-aph2″, blaZ) |
| --- | --- | --- | --- | --- | --- | --- | --- | --- | --- | --- | --- | --- | --- | --- |
| CS[C@H]1O[C@H]([C@H](NC(=O)[C@H]2NC[C@@H]3C[C@H](CC(C)C)CCO[C@H]32)[C@@H](C)O)[C@H](O)[C@H](O)[C@H]1O [FSA-09-04-072, (4S,5aS,8S,8aR)-N-((1R,2R)-2-Hydroxy-1-((2R,3R,4S,5R,6R)-3,4,5-trihydroxy-6-(methylthio)tetrahydro-2H-pyran-2-yl)propyl)-4-isobutyloctahydro-2H-oxepino[2,3-c]pyrrole-8-carboxamide] | 32 mg/L (≈ 67.1 µM) | 0.5 mg/L (≈ 1.05 µM) | 2 mg/L (≈ 4.2 µM) | 0.25 mg/L (≈ 0.525 µM) | 16 mg/L (≈ 33.6 µM) | 0.5 mg/L (≈ 1.05 µM) | 1 mg/L (≈ 2.1 µM) | 16 mg/L (≈ 33.6 µM) | 0.5 mg/L (≈ 1.05 µM) | 1 mg/L (≈ 2.1 µM) | – | – | – | – |
| CS[C@H]1O[C@H]([C@H](NC(=O)[C@H]2NC[C@@H]3C[C@H](CC(C)C)CCO[C@H]32)[C@H](C)Sc2ccc(CN3CCOCC3)cc2)[C@H](O)[C@H](O)[C@H]1O [FSA-09-05-68, (4S,5aS,8S,8aR)-4-Isobutyl-N-((1S,2S)-2-((4-(morpholinomethyl)phenyl)thio)-1-((2R,3R,4S,5R,6R)-3,4,5-trihydroxy-6-(methylthio)tetrahydro-2H-pyran-2-yl)propyl)octahydro-2H-oxepino[2,3-c]pyrrole-8-carboxamide] | 8 mg/L (≈ 12 µM) | 4 mg/L (≈ 5.99 µM) | 2 mg/L (≈ 2.99 µM) | 1 mg/L (≈ 1.5 µM) | 32 mg/L (≈ 47.9 µM) | 0.125 mg/L (≈ 0.187 µM) | 2 mg/L (≈ 2.99 µM) | 32 mg/L (≈ 47.9 µM) | 0.25 mg/L (≈ 0.374 µM) | 2 mg/L (≈ 2.99 µM) | – | – | – | – |
| CS[C@H]1O[C@H]([C@H](NC(=O)[C@H]2NC[C@@H]3C[C@H](CC(C)C)CCO[C@H]32)[C@H](C)Sc2ccc(CCN(C)C)cc2)[C@H](O)[C@H](O)[C@H]1O [FSA-09-04-087, (4S,5aS,8S,8aR)-N-((1S,2S)-2-((4-(2-(Dimethylamino)ethyl)phenyl)thio)-1-((2R,3R,4S,5R,6R)-3,4,5-trihydroxy-6-(methylthio)tetrahydro-2H-pyran-2-yl)propyl)-4-isobutyloctahydro-2H-oxepino[2,3-c]pyrrole-8-carboxamide] | 8 mg/L (≈ 12.5 µM) | 4 mg/L (≈ 6.25 µM) | 1 mg/L (≈ 1.56 µM) | 0.5 mg/L (≈ 0.781 µM) | 16 mg/L (≈ 25 µM) | 0.5 mg/L (≈ 0.781 µM) | 1 mg/L (≈ 1.56 µM) | 16 mg/L (≈ 25 µM) | 0.5 mg/L (≈ 0.781 µM) | 1 mg/L (≈ 1.56 µM) | – | – | – | – |
| NCC[C@H](O)C(=O)N[C@@H]1C[C@H](N)[C@@H](O[C@H]2O[C@H](CN)[C@@H](O)[C@H](O)[C@H]2O)[C@H](O)[C@H]1O[C@H]1O[C@H](CO)[C@@H](O)[C@H](N)[C@H]1O [Amikacin] | – | – | – | – | – | – | – | – | – | – | 4 mg/L (≈ 6.83 µM) | 4 mg/L (≈ 6.83 µM) | 4 mg/L (≈ 6.83 µM) | 64 mg/L (≈ 109 µM) |
| CS[C@H]1O[C@H]([C@H](NC(=O)[C@H]2NC[C@@H]3C[C@H](CC(C)C)CCO[C@H]32)[C@H](C)Sc2ccc(CO)cc2)[C@H](O)[C@H](O)[C@H]1O [FSA-09-05-069, (4S,5aS,8S,8aR)-N-((1S,2S)-2-((4-(Hydroxymethyl)phenyl)thio)-1-((2R,3R,4S,5R,6R)-3,4,5-trihydroxy-6-(methylthio)tetrahydro-2H-pyran-2-yl)propyl)-4-isobutyloctahydro-2H-oxepino[2,3-c]pyrrole-8-carboxamide] | 64 mg/L (≈ 107 µM) | 16 mg/L (≈ 26.7 µM) | 16 mg/L (≈ 26.7 µM) | 1 mg/L (≈ 1.67 µM) | 128 mg/L (≈ 214 µM) | 0.125 mg/L (≈ 0.209 µM) | 1 mg/L (≈ 1.67 µM) | 128 mg/L (≈ 214 µM) | 0.25 mg/L (≈ 0.417 µM) | 4 mg/L (≈ 6.68 µM) | – | – | – | – |
| CSC1O[C@H]([C@H](NC(=O)[C@H]2NC[C@@H]3C[C@H](CCCCl)CCO[C@H]32)[C@H](C)Cl)C(O)C(O)[C@H]1O (some centres unmarked) [FSA-12-03-042] | 16 mg/L (≈ 31 µM) | 4 mg/L (≈ 7.76 µM) | 2 mg/L (≈ 3.88 µM) | 0.125 mg/L (≈ 0.242 µM) | 8 mg/L (≈ 15.5 µM) | 0.06 mg/L (≈ 0.116 µM) | 0.125 mg/L (≈ 0.242 µM) | 8 mg/L (≈ 15.5 µM) | 0.06 mg/L (≈ 0.116 µM) | 0.5 mg/L (≈ 0.97 µM) | – | – | – | – |
| CS[C@H]1O[C@H]([C@H](NC(=O)[C@H]2NC[C@@H]3C[C@H](CC(C)C)CCO[C@H]32)C(C)C(F)(F)F)[C@H](O)[C@H](O)[C@H]1O (mixture of isomers) [FSA-09-04-081, (4S,5aS,8S,8aR)-4-Isobutyl-N-((1R)-3,3,3-trifluoro-2-methyl-1-((2R,3R,4S,5R,6R)-3,4,5-trihydroxy-6-(methylthio)tetrahydro-2H-pyran-2-yl)propyl)octahydro-2H-oxepino[2,3-c]pyrrole-8-carboxamide] | 8 mg/L (≈ 15.1 µM) | 0.25 mg/L (≈ 0.473 µM) | 2 mg/L (≈ 3.78 µM) | 0.125 mg/L (≈ 0.236 µM) | 32 mg/L (≈ 60.5 µM) | 0.125 mg/L (≈ 0.236 µM) | 0.125 mg/L (≈ 0.236 µM) | 32 mg/L (≈ 60.5 µM) | 0.125 mg/L (≈ 0.236 µM) | 2 mg/L (≈ 3.78 µM) | – | – | – | – |
| CS[C@H]1O[C@H]([C@H](NC(=O)[C@H]2NC[C@@H]3C[C@H](CC(C)C)CCO[C@H]32)[C@H](C)Sc2ccc(CN3CCCC3)cc2)[C@H](O)[C@H](O)[C@H]1O [FSA-09-05-078, (4S,5aS,8S,8aR)-4-Isobutyl-N-((1S,2S)-2-((4-(pyrrolidin-1-ylmethyl)phenyl)thio)-1-((2R,3R,4S,5R,6R)-3,4,5-trihydroxy-6-(methylthio)tetrahydro-2H-pyran-2-yl)propyl)octahydro-2H-oxepino[2,3-c]pyrrole-8-carboxamide] | 4 mg/L (≈ 6.14 µM) | 1 mg/L (≈ 1.53 µM) | 2 mg/L (≈ 3.07 µM) | 1 mg/L (≈ 1.53 µM) | 2 mg/L (≈ 3.07 µM) | 0.25 mg/L (≈ 0.383 µM) | 2 mg/L (≈ 3.07 µM) | 16 mg/L (≈ 24.5 µM) | 0.125 mg/L (≈ 0.192 µM) | 4 mg/L (≈ 6.14 µM) | – | – | – | – |
| CS[C@H]1O[C@H]([C@H](NC(=O)[C@H]2NC[C@@H]3C[C@H](CC(C)C)CCO[C@H]32)[C@H](C)Sc2ccc(-c3cccnc3)cc2)[C@H](O)[C@H](O)[C@H]1O [FSA-09-05-074, (4S,5aS,8S,8aR)-4-Isobutyl-N-((1S,2S)-2-((4-(pyridin-3-yl)phenyl)thio)-1-((2R,3R,4S,5R,6R)-3,4,5-trihydroxy-6-(methylthio)tetrahydro-2H-pyran-2-yl)propyl)octahydro-2H-oxepino[2,3-c]pyrrole-8-carboxamide] | 2 mg/L (≈ 3.1 µM) | 2 mg/L (≈ 3.1 µM) | 4 mg/L (≈ 6.19 µM) | 0.5 mg/L (≈ 0.774 µM) | 32 mg/L (≈ 49.5 µM) | 0.125 mg/L (≈ 0.194 µM) | 1 mg/L (≈ 1.55 µM) | 32 mg/L (≈ 49.5 µM) | 0.25 mg/L (≈ 0.387 µM) | 4 mg/L (≈ 6.19 µM) | – | – | – | – |
| CSC1O[C@H]([C@H](NC(=O)[C@H]2NC[C@@H]3C[C@H](CCCF)CCO[C@H]32)[C@H](C)Cl)C(O)C(O)[C@H]1O (some centres unmarked) [FSA-12-03-035] | 8 mg/L (≈ 16 µM) | 4 mg/L (≈ 8.02 µM) | 4 mg/L (≈ 8.02 µM) | 0.25 mg/L (≈ 0.501 µM) | 4 mg/L (≈ 8.02 µM) | 0.06 mg/L (≈ 0.12 µM) | 0.125 mg/L (≈ 0.25 µM) | 8 mg/L (≈ 16 µM) | 0.06 mg/L (≈ 0.12 µM) | 4 mg/L (≈ 8.02 µM) | – | – | – | – |
| CNCc1ccc(S[C@@H](C)[C@@H](NC(=O)[C@H]2NC[C@@H]3C[C@H](CC(C)C)CCO[C@H]32)[C@H]2O[C@H](SC)[C@H](O)[C@@H](O)[C@H]2O)cc1 [FSA-09-05-079, (4S,5aS,8S,8aR)-4-Isobutyl-N-((1S,2S)-2-((4-((methylamino)methyl)phenyl)thio)-1-((2R,3R,4S,5R,6R)-3,4,5-trihydroxy-6-(methylthio)tetrahydro-2H-pyran-2-yl)propyl)octahydro-2H-oxepino[2,3-c]pyrrole-8-carboxamide] | 8 mg/L (≈ 13.1 µM) | 4 mg/L (≈ 6.54 µM) | 1 mg/L (≈ 1.63 µM) | 0.5 mg/L (≈ 0.817 µM) | 16 mg/L (≈ 26.1 µM) | 0.5 mg/L (≈ 0.817 µM) | 1 mg/L (≈ 1.63 µM) | 16 mg/L (≈ 26.1 µM) | 0.5 mg/L (≈ 0.817 µM) | 1 mg/L (≈ 1.63 µM) | – | – | – | – |
